US11746111B2, “Siderophore conjugated pyrazolidinones, and analogues thereof” (YALE UNIVERSITY, priority 2018, dated 2023)
In brackets after ≈: the same amount, converted by molar mass. Like-named read-outs stand apart in the source and are kept apart here.

Columns and labels:
[1] = system: K. pneumoniae clinical isolates; test: Microdilution broth MIC, K. pneumoniae clinical isolates (Table 1); assay type: cell-based; settings: Klebsiella pneumoniae
Experimental: (§1) Microdilution Broth Minimum Inhibitory Concentrations (MICs)
(§2) MICs were performed in triplicate in cation adjusted Mueller-Hinton (MH) broth 30 according to CLSI guidelines. Firstly, overnight cultures of E. coli and K. pneumoniae clinical isolates were inoculated into 5 ml MH broth to OD600=0.1 and grown to OD600=0.224 (approximately 1-2×10^8 CFU/ml). These cultures were diluted (3 μl+4997 μl MH) and 100 μl inoculated into each well of a 96-well plate containing 100 μl of serial dilutions of compound 26 (YU253434), ampicillin, ceftazidime, or imipenem. The plates were placed in a 37° C. incubator for 18-20 hours and wells checked for growth.

[2] = system: E. coli clinical isolates; test: Microdilution broth MIC, E. coli clinical isolates (Table 1); assay type: cell-based; settings: Escherichia coli
Experimental: as §1, §2

[3] = K. pneumoniae KB390 Quale, TEM-30, TEM-1, KPC-2, SHV-12, read-out: MIC
[4] = K. pneumoniae LC56, CTX-M-1 grp(15), read-out: MIC
[5] = K. pneumoniae LC102, SHV-1 (WT + 238S), read-out: MIC
[6] = K. pneumoniae Rush23, CTX-M-9 group, read-out: MIC
[7] = K. pneumoniae VA-184, KPC-2, SHV-11, SHV-12, read-out: MIC
[8] = K. pneumoniae VA-267, KPC-3, TEM-1, SHV-11, SHV-12, read-out: MIC
[9] = K. pneumoniae VA-357, KPC-2, SHV-11, read-out: MIC
[10] = K. pneumoniae VA-368, KPC-2, TEM-1, SHV-5, SHV-68, read-out: MIC
[11] = K. pneumoniae VA-384, KPC-2, TEM-1, SHV-11, SHV-12, SHV-14, read-out: MIC
[12] = K. pneumoniae VA-391, KPC-3, TEM-1, SHV-11, SHV-12, SHV-77, read-out: MIC
[13] = K. pneumoniae VA-398, KPC-3, TEM-1, SHV-11, SHV-12, SHV-27, read-out: MIC
[14] = K. pneumoniae VA-400, KPC-2, TEM-1, SHV-11, SHV-12, read-out: MIC
[15] = K. pneumoniae VA-406, KPC-2, TEM-1, SHV-11, SHV-12, read-out: MIC
[16] = K. pneumoniae VA-410, KPC-3, TEM-1, SHV-11, read-out: MIC
[17] = E. coli 35218, TEM-1, read-out: MIC
[18] = E. coli LC12, CTX-M-1 grp(15), read-out: MIC
[19] = E. coli LC15, CTX-M-9 group, CTX-M-1 grp(15)
[20] = E. coli LC38, CTX-M-1 grp(15), PB AmpC (ACT/MIR)
[21] = E. coli LC41, TEM (238S), PB AmpC (ACT/MIR), CTX-M-1 grp(15)
[22] = E. coli LC77, TEM, KPC, read-out: MIC
[23] = E. coli LC81, SHV (238S + 240K), read-out: MIC
[24] = E. coli LC91, CTX-M-1 grp(15), CMY (group II), read-out: MIC
[25] = E. coli LC98, CMY (group II), read-out: MIC
[26] = E. coli LC109, CTX-M-9 group, CMY (group II)
[27] = E. coli LC111, TEM (164S), read-out: MIC
[28] = E. coli LC136, SHV (WT + 238S), read-out: MIC
[29] = K. pneumoniae 7000063, β-lactamase SHV-18, read-out: MIC
[30] = K. pneumoniae LC40, CTX-M-1 grp(15), TEM (164S), read-out: MIC
[31] = K. pneumoniae LC121, SHV-1 (WT + 238S + 240K), read-out: MIC
[32] = BAA202, E. coli BAA-202, SHV-1, read-out: MIC
[33] = E. coli Rush24, CMY (group II), read-out: MIC

CC1(C)S[C@@H]2[C@H](NC(=O)[C@H](N)c3ccccc3)C(=O)N2[C@H]1C(=O)O [Ampicillin] was tested, and the MIC ([1]; K. pneumoniae 7000063, β-lactamase SHV-18) was 1020 µg/mL (≈ 2930 µM), the MIC [1, 3] was > 2050 µg/mL and the MIC ([1]; K. pneumoniae LC40, CTX-M-1 grp(15), TEM (164S)) was 512 µg/mL (≈ 1470 µM). For the same molecule, the MIC [1, 4] was > 2050 µg/mL, the MIC [1, 5] was > 2050 µg/mL and the MIC ([1]; K. pneumoniae LC121, SHV-1 (WT + 238S + 240K)) was 1020 µg/mL. The MIC [1, 6] was > 2050 µg/mL, the MIC [1, 7] was > 2050 µg/mL and the MIC [1, 8] was > 2050 µg/mL. For the same molecule, the MIC [1, 9] was > 2050 µg/mL, the MIC [1, 10] was > 2050 µg/mL and the MIC [1, 11] was > 2050 µg/mL. The MIC [1, 12] was > 2050 µg/mL, the MIC [1, 13] was > 2050 µg/mL and the MIC [1, 14] was > 2050 µg/mL. For the same molecule, the MIC [1, 15] was > 2050 µg/mL, the MIC [1, 16] was > 2050 µg/mL and the MIC ([2]; BAA202, E. coli BAA-202, SHV-1) was > 2050 µg/mL. For the same molecule, the MIC [2, 17] was 256 µg/mL (≈ 733 µM), the MIC ([2]; E. coli LC4, TEM, SHV-12) was > 2050 µg/mL and the MIC [2, 18] was 2050 µg/mL (≈ 5860 µM). It also gave an MIC [2, 19] of 1020 µg/mL (≈ 2930 µM), an MIC ([2]; E. coli LC33, CTX-M-9 group) of 512 µg/mL (≈ 1470 µM) and an MIC [2, 20] of 512 µg/mL (≈ 1470 µM). The MIC [2, 21] was 512 µg/mL (≈ 1470 µM), the MIC [2, 22] was 2050 µg/mL (≈ 5860 µM) and the MIC [2, 23] was 2050 µg/mL. For the same molecule, the MIC [2, 24] was 2050 µg/mL (≈ 5860 µM), the MIC [2, 25] was 2050 µg/mL (≈ 5860 µM) and the MIC [2, 26] was 1020 µg/mL (≈ 2930 µM). For the same molecule, the MIC [2, 27] was 1020 µg/mL (≈ 2930 µM), the MIC [2, 28] was 512 µg/mL and the MIC ([2]; E. coli Rush24, CMY (group II)) was > 2050 µg/mL.
C[C@@H](O)[C@H]1C(=O)N2C(C(=O)O)=C(SCCN=CN)C[C@H]12 [Imipenem] was tested, and the MIC [1, 29] was < 0.125 µg/mL, the MIC [1, 3] was 4 µg/mL (≈ 13.4 µM) and the MIC [1, 30] was 0.25 µg/mL (≈ 0.835 µM). For the same molecule, the MIC [1, 4] was 0.5 µg/mL (≈ 1.67 µM), the MIC [1, 5] was < 0.125 µg/mL and the MIC [1, 31] was < 0.125 µg/mL. For the same molecule, the MIC [1, 6] was < 0.125 µg/mL, the MIC [1, 7] was 8 µg/mL (≈ 26.7 µM) and the MIC [1, 8] was 4 µg/mL (≈ 13.4 µM). The MIC [1, 9] was 8 µg/mL (≈ 26.7 µM), the MIC [1, 10] was 1 µg/mL (≈ 3.34 µM) and the MIC [1, 11] was 32 µg/mL (≈ 107 µM). For the same molecule, the MIC [1, 12] was 4 µg/mL (≈ 13.4 µM), the MIC [1, 13] was 1 µg/mL (≈ 3.34 µM) and the MIC [1, 14] was 4 µg/mL (≈ 13.4 µM). For the same molecule, the MIC [1, 15] was > 128 µg/mL, the MIC [1, 16] was 2 µg/mL (≈ 6.68 µM) and the MIC [2, 32] was 0.25 µg/mL (≈ 0.835 µM). The MIC ([2]; E. coli 35218, TEM-1) was < 0.125 µg/mL, the MIC ([2]; E. coli LC4, TEM, SHV-12) was < 0.125 µg/mL and the MIC ([2]; E. coli LC12, CTX-M-1 grp(15)) was 128 µg/mL (≈ 428 µM). The MIC [2, 19] was < 0.125 µg/mL, the MIC ([2]; E. coli LC33, CTX-M-9 group) was < 0.125 µg/mL and the MIC [2, 20] was < 0.125 µg/mL. For the same molecule, the MIC [2, 21] was < 0.125 µg/mL, the MIC [2, 22] was 2 µg/mL (≈ 6.68 µM) and the MIC [2, 23] was < 0.125 µg/mL. For the same molecule, the MIC ([2]; E. coli LC91, CTX-M-1 grp(15), CMY (group II)) was < 0.125 µg/mL, the MIC [2, 25] was < 0.125 µg/mL and the MIC [2, 26] was < 0.125 µg/mL. For the same molecule, the MIC [2, 27] was < 0.125 µg/mL, the MIC [2, 28] was < 0.125 µg/mL and the MIC [2, 33] was 0.25 µg/mL (≈ 0.835 µM).
With CC(C)(O/N=C(\C(=O)N[C@@H]1C(=O)N2C(C(=O)[O-])=C(C[n+]3ccccc3)CS[C@H]12)c1csc(N)n1)C(=O)O [Ceftazidime] the MIC [1, 29] was 16 µg/mL (≈ 29.3 µM), the MIC ([1]; K. pneumoniae KB390 Quale, TEM-30, TEM-1, KPC-2, SHV-12) was 512 µg/mL (≈ 937 µM) and the MIC [1, 30] was < 1 µg/mL. The MIC [1, 4] was 16 µg/mL (≈ 29.3 µM), the MIC [1, 5] was 4 µg/mL and the MIC [1, 31] was 16 µg/mL. It also gave an MIC [1, 6] of 2 µg/mL (≈ 3.66 µM), an MIC ([1]; K. pneumoniae VA-184, KPC-2, SHV-11, SHV-12) of 256 µg/mL (≈ 468 µM) and an MIC ([1]; K. pneumoniae VA-267, KPC-3, TEM-1, SHV-11, SHV-12) of 512 µg/mL (≈ 937 µM). It also gave an MIC ([1]; K. pneumoniae VA-357, KPC-2, SHV-11) of 128 µg/mL (≈ 234 µM), an MIC [1, 10] of 16 µg/mL (≈ 29.3 µM) and an MIC ([1]; K. pneumoniae VA-384, KPC-2, TEM-1, SHV-11, SHV-12, SHV-14) of 256 µg/mL (≈ 468 µM). For the same molecule, the MIC ([1]; K. pneumoniae VA-391, KPC-3, TEM-1, SHV-11, SHV-12, SHV-77) was 256 µg/mL (≈ 468 µM), the MIC [1, 13] was 32 µg/mL (≈ 58.5 µM) and the MIC ([1]; K. pneumoniae VA-400, KPC-2, TEM-1, SHV-11, SHV-12) was 256 µg/mL (≈ 468 µM). For the same molecule, the MIC ([1]; K. pneumoniae VA-406, KPC-2, TEM-1, SHV-11, SHV-12) was 256 µg/mL (≈ 468 µM), the MIC ([1]; K. pneumoniae VA-410, KPC-3, TEM-1, SHV-11) was 128 µg/mL (≈ 234 µM) and the MIC [2, 32] was 16 µg/mL (≈ 29.3 µM). For the same molecule, the MIC [2, 17] was < 1 µg/mL, the MIC ([2]; E. coli LC4, TEM, SHV-12) was 256 µg/mL (≈ 468 µM) and the MIC [2, 18] was > 1020 µg/mL. For the same molecule, the MIC ([2]; E. coli LC15, CTX-M-9 group, CTX-M-1 grp(15), read-out: MIC) was < 1 µg/mL, the MIC ([2]; E. coli LC33, CTX-M-9 group, read-out: MIC) was 4 µg/mL (≈ 7.32 µM) and the MIC ([2]; E. coli LC38, CTX-M-1 grp(15), PB AmpC (ACT/MIR), read-out: MIC) was < 1 µg/mL. The MIC ([2]; E. coli LC41, TEM (238S), PB AmpC (ACT/MIR), CTX-M-1 grp(15), read-out: MIC) was < 1 µg/mL, the MIC [2, 22] was 16 µg/mL (≈ 29.3 µM) and the MIC [2, 23] was 128 µg/mL. The MIC [2, 24] was 16 µg/mL (≈ 29.3 µM), the MIC [2, 25] was 256 µg/mL (≈ 468 µM) and the MIC ([2]; E. coli LC109, CTX-M-9 group, CMY (group II), read-out: MIC) was 32 µg/mL (≈ 58.5 µM). For the same molecule, the MIC [2, 27] was 2 µg/mL (≈ 3.66 µM), the MIC [2, 28] was < 1 µg/mL and the MIC [2, 33] was 256 µg/mL (≈ 468 µM).
